Converted amounts (≈) assume the structure as drawn. Where two headings read alike, the source gives them in different places.
Legend:
[1] = Antimicrobial activity of decomposition product; assay type: cell-based
From the text: It has also been discovered that the compounds of the present invention may degrade at a pH of 7 or above over an extended time period to compounds which are less antimicrobially active than the original compounds of the present invention.

Bacillus subtilis (Bs) = test: MIC in nutrient agar, Bacillus subtilis; assay type: cell-based, Bacillus subtilis ATCC 8473; conditions: Bacillus subtilis
Method: (§1) The minimum inhibitory concentration (MIC) for the compounds listed in Table I is determined for 9 bacteria, using nutrient agar, and 7 yeast and fungi, using malt yeast agar. A one percent solution of the test compound is prepared in a mixture of acetone and water. Nutrient agar is prepared at pH 6.8, representing a neutral medium, and at pH 8.2, representing an alkaline medium. The nutrient agars are prepared by adding 23 g of nutrient agar to one-liter of deionized water. In addition, the alkaline medium is prepared by adjusting a 0.04M solution of N-[tris-(hydroxymethyl)methyl]-glycine buffered deionized water with concentrated sodium hydroxide to a pH of […]. Malt yeast agar is prepared by adding 3 g yeast extract and 45 g malt agar per liter of deionized water. The specific agar is dispensed in 30 ml aliquots into 25×200 mm test tubes, capped and autoclaved for 15 minutes at 115° C. The test tubes containing the agar are cooled in a water bath until the temperature of the agar is 48° C. Then, an appropriate amount of the one percent solution of the test compound is added (except in the controls where no compound is added) to the respective test tubes so that the final concentrations are 500, 250, 100, 50, 25, 10, 5, 2.5, 1.0 and zero parts per million of the test compound in the agar, thus having a known concentration of test compound dispersed therein. The contents of the test tubes are then transferred to respective petri plates. After drying for 24 hours, the petri plates containing nutrient agar are inoculated with bacteria and those containing malt yeast agar are inoculated with yeast and fungi.
(§2) The inoculation with bacteria is accomplished by using the following procedure. Twenty-four hour-cultures of each of the bacteria are prepared by incubating the respective bacteria in tubes containing nutrient broth for 24 hours at 30° C. in a shaker. Dilutions of each of the 24 hour-cultures are made so that nine separate suspensions (one for each of the nine test bacteria) are made, each containing 10^8 colony forming units (CFU) per ml of suspension of a particular bacteria. Aliquots of 0.3 ml of each of the bacterial suspensions are used to fill the individual wells of Steer's Replicator. For each microbial suspension, 0.3 ml was used to fill three wells (i.e., three wells of 0.3 ml each) so that for the nine different bacteria, 27 wells are filled. The Steer's Replicator is then used to inoculate both the neutral and alkaline pH nutrient agar petri plates.
(§3) The inoculated petri plates are incubated at 30° C. for 48 hours and then read to determine if the test compound which is incorporated into the agar prevented growth of the respective bacteria.
(§4) Table II lists the bacteria, yeast and fungi used in the MIC test described above along with their respective American Type Culture Collection (ATCC) identification numbers.
(§5) The following MIC and MEC antimicrobial tests, whose results are shown in Tables XIII-XVII, are performed using the same methods as described hereinabove.

[2] = test system: Enterobacter aerogenes (Ea); test: MIC in nutrient agar, Enterobacter aerogenes; assay type: cell-based, Enterobacter aerogenes ATCC 13048; conditions: Klebsiella aerogenes
Method: as §1, §2, §3, §4, §5

Escherichia coli (Ec) = test: MIC in nutrient agar, Escherichia coli; assay type: cell-based, Escherichia coli ATCC 11229; conditions: Escherichia coli
Method: as §1, §2, §3, §4, §5

[3] = test system: Klebsiella pneumoniae (Kp); test: MIC in nutrient agar, Klebsiella pneumoniae; assay type: cell-based, Klebsiella pneumoniae ATCC 8308
Method: as §1, §2, §3, §4, §5

Proteus vulgaris (Pv) = test: MIC in nutrient agar, Proteus vulgaris; assay type: cell-based, Proteus vulgaris ATCC 881
Method: as §1, §2, §3, §4, §5

[4] = test system: Pseudomonas aeruginosa (PRD-10); test: MIC in nutrient agar, Pseudomonas aeruginosa PRD-10; assay type: cell-based, Pseudomonas aeruginosa ATCC 15442; conditions: Pseudomonas aeruginosa
Method: as §1, §2, §3, §4, §5

[5] = test system: Pseudomonas aeruginosa (Pa); test: MIC in nutrient agar, Pseudomonas aeruginosa; assay type: cell-based, Pseudomonas aeruginosa ATCC 10145
Method: as §1, §2, §3, §4, §5

[6] = test system: Salmonella choleraesuis (Sc); test: MIC in nutrient agar, Salmonella choleraesuis; assay type: cell-based, Salmonella choleraesuis ATCC 10708; conditions: Salmonella enterica, CHOLERAESUIS
Method: as §1, §2, §3, §4, §5

[7] = test system: Staphylococcus aureus (Sa); test: MIC in nutrient agar, Staphylococcus aureus; assay type: cell-based, Staphylococcus aureus ATCC 6538; conditions: Staphylococcus aureus
Method: as §1, §2, §3, §4, §5

Aspergillus niger (An) = test: MIC in malt yeast agar, Aspergillus niger; assay type: cell-based, Aspergillus niger ATCC 16404; conditions: read-out: Minimum Inhibitory Concentration, An
Method: as §1
(§6) The inoculation with the yeast and fungi is accomplished as follows. Cultures of yeast and fungi are incubated for seven days on malt yeast agar at 30° C. These cultures are used to prepare suspensions by the following procedure. A suspension of each organism is prepared by adding 10 ml of sterile saline and 10 microliters of octylphenoxy polyethoxy ethanol (TRITON® X-100, a trademark of Rohm & Haas Company) to the agar slant of yeast or fungi. The sterile saline/octylphenoxy polyethoxy ethanol solution is then agitated with a sterile swab to suspend the microorganism grown on the slant. Each resulting suspension is diluted into sterile saline (1 part suspension: 9 parts sterile saline). Aliquots of these dilutions are placed in individual wells of Steer's Replicator and petri plates inoculated as previously described. The petri plates are incubated at 30° C. and read after 48 hours for yeast and 72 hours for fungi.
as §4, §5

Candida albicans (Ca) = test: MIC in malt yeast agar, Candida albicans; assay type: cell-based, Candida albicans ATCC 10231; conditions: read-out: Minimum Inhibitory Concentration, Ca
Method: as §1, §6, §4, §5

[8] = test system: Penicillium chrysogenum (Pc); test: MIC in malt yeast agar, Penicillium chrysogenum; assay type: cell-based, Penicillium chrysogenum ATCC 9480; conditions: read-out: Minimum Inhibitory Concentration, Pc
Method: as §1, §6, §4, §5

[9] = test system: Saccharomyces cerevisiae (Sc); test: MIC in malt yeast agar, Saccharomyces cerevisiae; assay type: cell-based, Saccharomyces cerevisiae ATCC 4105; conditions: read-out: Minimum Inhibitory Concentration, Sc
Method: as §1, §6, §4, §5

Trichoderma viride (Tv) = test: MIC in malt yeast agar, Trichoderma viride; assay type: cell-based, Trichoderma viride ATCC 8678; conditions: read-out: Minimum Inhibitory Concentration, Tv
Method: as §1, §6, §4, §5

[10] = test system: Aureobasidium pullulan (Ap); test: MIC in malt yeast agar, Aureobasidium pullulan; assay type: cell-based, Aureobasidium pullulan ATCC 16622; conditions: read-out: Minimum Inhibitory Concentration, Ap
Method: as §1, §6, §4, §5

Fusarium oxysporum (Fo) = test: MIC in malt yeast agar, Fusarium oxysporum; assay type: cell-based, Fusarium oxysporum ATCC 48112; conditions: read-out: Minimum Inhibitory Concentration, Fo
Method: as §1, §6, §4, §5

CSC(=CC#N)SC [3,3-bis(methylthio)propenenitrile]
antimicrobial activity of decomposition product [1]: virtually inactive as an antimicrobial

CS/C=C(/Cl)C#N [Compound H, E isomer of 2-chloro-3-(methylthio)-2-propenenitrile]
MIC (Bacillus subtilis (Bs); pH 6.8, read-out: Minimum Inhibitory Concentration, Bs): > 500 µg/mL
MIC (Bacillus subtilis (Bs); pH 8.2, read-out: Minimum Inhibitory Concentration, Bs): 500 µg/mL (≈ 3.74 mM)
MIC ([2]; pH 6.8, read-out: Minimum Inhibitory Concentration, Ea): > 500 µg/mL
MIC ([2]; pH 8.2, read-out: Minimum Inhibitory Concentration, Ea): 500 µg/mL (≈ 3.74 mM)
MIC (Escherichia coli (Ec); pH 6.8, read-out: Minimum Inhibitory Concentration, Ec): > 500 µg/mL
MIC (Escherichia coli (Ec); pH 8.2, read-out: Minimum Inhibitory Concentration, Ec): 500 µg/mL (≈ 3.74 mM)
MIC ([3]; pH 6.8, read-out: Minimum Inhibitory Concentration, Kp): > 500 µg/mL
MIC ([3]; pH 8.2, read-out: Minimum Inhibitory Concentration, Kp): 500 µg/mL (≈ 3.74 mM)
MIC (Proteus vulgaris (Pv); pH 6.8, read-out: Minimum Inhibitory Concentration, Pv): > 500 µg/mL
MIC (Proteus vulgaris (Pv); pH 8.2, read-out: Minimum Inhibitory Concentration, Pv): 250 µg/mL (≈ 1.87 mM)
MIC ([4]; pH 6.8, read-out: Minimum Inhibitory Concentration, PRD): > 500 µg/mL
MIC ([4]; pH 8.2, read-out: Minimum Inhibitory Concentration, PRD): 250 µg/mL (≈ 1.87 mM)
MIC ([5]; pH 6.8, read-out: Minimum Inhibitory Concentration, Pa): > 500 µg/mL
MIC ([5]; pH 8.2, read-out: Minimum Inhibitory Concentration, Pa): 250 µg/mL (≈ 1.87 mM)
MIC ([6]; pH 6.8, read-out: Minimum Inhibitory Concentration, Sc): > 500 µg/mL
MIC ([6]; pH 8.2, read-out: Minimum Inhibitory Concentration, Sc): 500 µg/mL (≈ 3.74 mM)
MIC ([7]; pH 6.8, read-out: Minimum Inhibitory Concentration, Sa): > 500 µg/mL
MIC ([7]; pH 8.2, read-out: Minimum Inhibitory Concentration, Sa): 500 µg/mL (≈ 3.74 mM)
MIC (Aspergillus niger (An)): 250 µg/mL (≈ 1.87 mM)
MIC (Candida albicans (Ca)): 250 µg/mL (≈ 1.87 mM)
MIC [8]: 100 µg/mL (≈ 0.748 mM)
MIC [9]: 500 µg/mL (≈ 3.74 mM)
MIC (Trichoderma viride (Tv)): 250 µg/mL (≈ 1.87 mM)
MIC [10]: 250 µg/mL (≈ 1.87 mM)
MIC (Fusarium oxysporum (Fo)): 100 µg/mL (≈ 0.748 mM)

Source: patent US5198445A, “Composition and use of substituted 3-thio-2-propynenitriles as industrial antimicrobials” (The Dow Chemical Company, priority 1992, dated 1993)
